The results in this text go back to patent US8163935B2, “Fused heterocyclic compounds” (Takeda Pharmaceutical Company Limited, priority 2005, dated 2012).

Structures can show the parent of a compound that is named as a salt.

`COc1cc(Cl)cc(C)c1Nc1nc2cccc(-c3c(OC)cccc3OC)c2n1C` (as salt: trifluoroacetic acid salt) [Example 71, N-(4-chloro-2-methoxy-6-methylphenyl)-7-(2,6-dimethoxyphenyl)-1-methyl-1H-benzimidazol-2-amine Trifluoroacetic acid salt]: the melting point lay within 288 to 289 °C.
The result for `CCCC(O)(CCC)c1cccc2nc(Nc3c(C)cc(C)cc3C)n(CCO)c12` [Example 73, 4-[1-(2-Hydroxyethyl)-2-(mesitylamino)-1H-benzimidazol-7-yl]heptan-4-ol] reads 267 to 270 °C.
As for `CCC(CC)c1ccc(Cl)c2nc(Nc3c(Cl)cc(OC(F)(F)F)cc3Cl)n(C)c12` [Example 79, 4-Chloro-N-[2,6-dichloro-4-(trifluoromethoxy)phenyl]-7-(1-ethylpropyl)-1-methyl-1H-benzimidazol-2-amine], the figure is 147 to 149 °C; as for `CCC(CC)c1ccc(Cl)c2nc(Nc3ccc(Cl)cc3Cl)n(C)c12` [Example 80, 4-Chloro-N-(2,4-dichlorophenyl)-7-(1-ethylpropyl)-1-methyl-1H-benzimidazol-2-amine], 130 to 132 °C.
`CCC(CC)c1ccc(Cl)c2nc(Nc3ccc(Cl)cc3OC(F)(F)F)n(C)c12` [Example 81, 4-Chloro-N-[4-chloro-2-(trifluoromethoxy)phenyl]-7-(1-ethylpropyl)-1-methyl-1H-benzimidazol-2-amine] gave a melting point of 126 to 128 °C.
The result for `CCC(CC)c1ccc(Cl)c2nc(Nc3c(C)cc(Br)cc3C)n(C)c12` [Example 82, N-(4-Bromo-2,6-dimethylphenyl)-4-chloro-7-(1-ethylpropyl)-1-methyl-1H-benzimidazol-2-amine] reads 247 to 249 °C; that for `CCC(CC)c1ccc(Cl)c2nc(Nc3c(C)cc(Cl)cc3C)n(C)c12` [Example 83, 4-Chloro-N-(4-chloro-2,6-dimethylphenyl)-7-(1-ethylpropyl)-1-methyl-1H-benzimidazol-2-amine], 247 to 249 °C.
In turn, `CCC(CC)c1ccc(Cl)c2nc(Nc3ccc(Br)cc3Cl)n(C)c12` [Example 85, N-(4-Bromo-2-chlorophenyl)-4-chloro-7-(1-ethylpropyl)-1-methyl-1H-benzimidazol-2-amine] displayed a melting point of 127 to 129 °C.
The result for `CCC(CC)c1ccc(Cl)c2nc(Nc3ccc(C)cc3Br)n(C)c12` [Example 86, N-(2-Bromo-4-methylphenyl)-4-chloro-7-(1-ethylpropyl)-1-methyl-1H-benzimidazol-2-amine] reads 174 to 176 °C; that for `CCC(CC)c1ccc(Cl)c2nc(Nc3ccc(OC(F)(F)F)cc3Cl)n(C)c12` [Example 87, 4-Chloro-N-[2-chloro-4-(trifluoromethoxy)phenyl]-7-(1-ethylpropyl)-1-methyl-1H-benzimidazol-2-amine], 122 to 123 °C; that for `CCC(CC)c1ccc(Cl)c2nc(Nc3cnc(N(C)C)cc3C)n(C)c12` [Example 88, N^5-[4-Chloro-7-(1-ethylpropyl)-1-methyl-1H-benzimidazol-2-yl]-N^2,N^2,4-trimethylpyridine-2,5-diamine], 224 to 226 °C.
The result for `CCCC(CCC)c1ccc(Cl)c2nc(Nc3c(C)cc(Br)cc3OC)n(C)c12` [Example 89, N-(4-Bromo-2-methoxy-6-methylphenyl)-4-chloro-1-methyl-7-(1-propylbutyl)-1H-benzimidazol-2-amine] reads 210 to 211 °C; that for `CCCC(CCC)c1ccc(Cl)c2nc(Nc3ccc(Cl)cc3Cl)n(C)c12` [Example 91, 4-Chloro-N-(2,4-dichlorophenyl)-1-methyl-7-(1-propylbutyl)-1H-benzimidazol-2-amine], 146 to 148 °C; that for `CCCC(CCC)c1ccc(Cl)c2nc(Nc3ccc(Cl)cc3Br)n(C)c12` [Example 92, N-(2-Bromo-4-chlorophenyl)-4-chloro-1-methyl-7-(1-propylbutyl)-1H-benzimidazol-2-amine], 145 to 147 °C.
`CCCC(CCC)c1ccc(Cl)c2nc(Nc3ccc(Br)cc3Cl)n(C)c12` [Example 93, N-(4-Bromo-2-chlorophenyl)-4-chloro-1-methyl-7-(1-propylbutyl)-1H-benzimidazol-2-amine] registered a melting point of 145 to 147 °C.
As for `CCCC(CCC)c1ccc(Cl)c2nc(Nc3ccc(Cl)cc3OC(F)(F)F)n(C)c12` [Example 94, 4-Chloro-N-[4-chloro-2-(trifluoromethoxy)phenyl]-1-methyl-7-(1-propylbutyl)-1H-benzimidazol-2-amine], the figure is 130 to 132 °C.
The molecule `CCC(CC)c1ccc(Cl)c2nc(Nc3ccc(C(F)(F)F)cc3Cl)n(C)c12` [Example 95, 4-Chloro-N-[2-chloro-4-(trifluoromethyl)phenyl]-7-(1-ethylpropyl)-1-methyl-1H-benzimidazol-2-amine] displayed a melting point of 128 to 129 °C.
The result for `CCC(CC)c1ccc(Br)c2nc(Nc3c(C)cc(Cl)cc3OC)n(C)c12` [Example 96, 4-Bromo-N-(4-chloro-2-methoxy-6-methylphenyl)-7-(1-ethylpropyl)-1-methyl-1H-benzimidazol-2-amine] reads 198 to 199 °C; that for `CCC(CC)c1ccc(Cl)c2nc(Oc3ccc(Cl)cc3Cl)n(C)c12` [Example 98, 4-Chloro-2-(2,4-dichlorophenoxy)-7-(1-ethylpropyl)-1-methyl-1H-benzimidazole], 87 to 89 °C.
In turn, `CCC(CC)c1ccc(Cl)c2nc(Oc3c(C)cc(C)cc3C)n(C)c12` [Example 99, 4-Chloro-7-(1-ethylpropyl)-2-(mesityloxy)-1-methyl-1H-benzimidazole] gave a melting point of 137 to 139 °C.
The result for `CCC(CC)c1ccc(Cl)c2nc(Nc3c(C)cc(Cl)cc3OC)n(CC(=O)OC(C)C)c12` [Example 102, Isopropyl[4-chloro-2-[(4-chloro-2-methoxy-6-methylphenyl)amino]-7-(1-ethylpropyl)-1H-benzimidazol-1-yl]acetate] reads 205 to 207 °C; that for `COc1cc(Cl)cc(C)c1Nc1nc2c(Cl)ccc(C(=O)C(C)(C)C)c2n1C` [Example 105, 1-{4-Chloro-2-[(4-chloro-2-methoxy-6-methylphenyl)amino]-1-methyl-1H-benzimidazol-7-yl}-2,2-dimethylpropan-1-one], 249 to 250 °C; that for `COc1cc(Cl)cc(C)c1Nc1nc2c(Cl)ccc(C(O)(C(C)(C)C)C(C)(C)C)c2n1C` [Example 106, 3-{4-Chloro-2-[(4-chloro-2-methoxy-6-methylphenyl)amino]-1-methyl-1H-benzimidazol-7-yl}-2,2,4,4-tetramethylpentan-3-ol], 246 to 248 °C.
The result for `COc1cc(Cl)cc(C)c1Nc1nc2c(Cl)ccc(C(O)(C(C)C)C(C)C)c2n1C` [Example 107, 3-{4-Chloro-2-[(4-chloro-2-methoxy-6-methylphenyl)amino]-1-methyl-1H-benzimidazol-7-yl}-2,4-dimethylpentan-3-ol] reads 218 to 219 °C; that for `COc1cc(Cl)cc(C)c1Nc1nc2c(Cl)ccc(C(=C(C)C)C(C)C)c2n1C` [Example 108, 4-Chloro-N-(4-chloro-2-methoxy-6-methylphenyl)-7-(1-isopropyl-2-methylprop-1-en-1-yl)-1-methyl-1H-benzimidazol-2-amine], 166 to 168 °C.
The result for `C/C=C(/CC)c1ccc(Cl)c2nc(Nc3c(C)cc(Cl)cc3OC)n(C)c12` [Example 109, 4-Chloro-N-(4-chloro-2-methoxy-6-methylphenyl)-7-[(1Z)-1-ethylprop-1-en-1-yl]-1-methyl-1H-benzimidazol-2-amine] reads 166 to 168 °C; that for `CCCC(CCC)c1ccc(Cl)c2nc(Nc3cc(C(F)(F)F)ccc3OC)n(C)c12` [Example 112, 4-Chloro-N-[2-methoxy-5-(trifluoromethyl)phenyl]-1-methyl-7-(1-propylbutyl)-1H-benzimidazol-2-amine], 178 to 180 °C.
`CCCC(CCC)c1ccc(Cl)c2nc(Nc3cc(C(F)(F)F)c(Cl)cc3Cl)n(C)c12` [Example 113, 4-Chloro-N-[2,4-dichloro-5-(trifluoromethyl)phenyl]-1-methyl-7-(1-propylbutyl)-1H-benzimidazol-2-amine]: the melting point lay within 206 to 208 °C.
As to `CCCC(CCC)c1ccc(Cl)c2nc(Nc3c(C)cc(Cl)cc3C)n(C)c12` [Example 114, 4-Chloro-N-(4-chloro-2,6-dimethylphenyl)-1-methyl-7-(1-propylbutyl)-1H-benzimidazol-2-amine], the melting point was in the range of 230 to 232 °C.
With `CCCC(CCC)c1ccc(Cl)c2nc(Nc3c(C)cc(Br)cc3C)n(C)c12` [Example 115, N-(4-Bromo-2,6-dimethylphenyl)-4-chloro-1-methyl-7-(1-propylbutyl)-1H-benzimidazol-2-amine], the melting point lay in the range of 234 to 236 °C.
As for `CCCC(CCC)c1ccc(Cl)c2nc(Nc3c[nH]c(=O)cc3C)n(C)c12` [Example 116, 5-{[4-Chloro-1-methyl-7-(1-propylbutyl)-1H-benzimidazol-2-yl]amino}-4-methylpyridin-2(1H)-one], the figure is 237 to 239 °C; as for `CCCC(CCC)c1ccc(Cl)c2nc(Nc3cccc4c3CCCC4)n(C)c12` [Example 117, 4-Chloro-1-methyl-7-(1-propylbutyl)-N-(5,6,7,8-tetrahydronaphthalen-1-yl)-1H-benzimidazol-2-amine], 236 to 238 °C.
With `CCC(CC)c1cc(Br)cc2nc(Nc3c(C)cc(Cl)cc3OC)n(C)c12` [Example 121, 5-Bromo-N-(4-chloro-2-methoxy-6-methylphenyl)-7-(1-ethylpropyl)-1-methyl-1H-benzimidazol-2-amine], the melting point is 276 to 278 °C.
Regarding `CCCC(CCC)c1ccc(Cl)c2nc(Nc3cc(C(F)(F)F)c(O)cc3Cl)n(C)c12` [Example 122, 5-Chloro-4-{[4-chloro-1-methyl-7-(1-propylbutyl)-1H-benzimidazol-2-yl]amino}-2-(trifluoromethyl)phenol], the melting point fell in the range of 197 to 199 °C.
In turn, `CCCC(CCC)c1ccc(Cl)c2nc(Nc3cc(C(F)(F)F)c(OC)cc3OC)n(C)c12` [Example 123, 4-Chloro-N-[2,4-dimethoxy-5-(trifluoromethyl)phenyl]-1-methyl-7-(1-propylbutyl)-1H-benzimidazol-2-amine] showed a melting point of 196 to 198 °C.
